# Data from paper PMC5578999, “Novel quinolone chalcones targeting colchicine-binding pocket kill multidrug-resistant cancer cells by inhibiting tubulin activity and MRP1 function” (Scientific Reports, 2017).
# How the values were obtained:
# Assay in all cases: NCI-60 SRB screen
# Format in all cases: cell-based
# TK-10 = test system: TK-10
# SK-MEL-28 = test system: SK-MEL-28
# OVCAR-3 = test system: OVCAR-3
# U251 = test system: U251
# UACC-62 = test system: UACC-62
# IGROV1 = test system: IGROV1
# PC-3 = test system: PC-3
# SK-OV-3 = test system: SK-OV-3
# SK-MEL-2 = test system: SK-MEL-2
# BT-549 = test system: BT-549
# NCI/ADR-RES = test system: NCI/ADR-RES
# NCI-H522 = test system: NCI-H522
# [1] = Homo sapiens, read-out: LC50 (the source's name)
smiles,measurement,setting,value
"COc1ccc2[nH]c(=O)c(/C=C/C(=O)c3ccccc3OC)cc2c1 [CTR-20, (E)-6-Methoxy-3-(3-(2-methoxyphenyl)-3-oxoprop-1-enyl) quinolin-2(1H)-one]",Log10GI50,TK-10,-5.64 Molar
same,Log10LC50,TK-10,-4.44 Molar
same,Log10TGI,TK-10,-4.88 Molar
same,TGI,TK-10,1.31E-5 Molar
same,Growth Percent,TK-10; 1.00E-5 Molar,42.01%
same,GI50,TK-10; Homo sapiens,2.31 µM
same,CC50,TK-10; [1],36.4 µM
same,Percent Growth,TK-10; Log10 Concentration -4.0,-99%
same,Percent Growth,TK-10; Log10 Concentration -5.0,13%
same,Percent Growth,TK-10; Log10 Concentration -6.0,71%
same,Percent Growth,TK-10; Log10 Concentration -7.0,93%
same,Percent Growth,TK-10; Log10 Concentration -8.0,91%
same,Log10GI50,SK-MEL-28,-5.82 Molar
same,Log10LC50,SK-MEL-28,-4.54 Molar
same,Log10TGI,SK-MEL-28,-5.14 Molar
same,TGI,SK-MEL-28,7.32E-6 Molar
same,Growth Percent,SK-MEL-28; 1.00E-5 Molar,50.45%
same,GI50,SK-MEL-28; Homo sapiens,1.52 µM
same,CC50,SK-MEL-28; [1],28.5 µM
same,Percent Growth,SK-MEL-28; Log10 Concentration -4.0,-98%
same,Percent Growth,SK-MEL-28; Log10 Concentration -5.0,-10%
same,Percent Growth,SK-MEL-28; Log10 Concentration -6.0,63%
same,Percent Growth,SK-MEL-28; Log10 Concentration -7.0,95%
same,Percent Growth,SK-MEL-28; Log10 Concentration -8.0,96%
same,Log10GI50,OVCAR-3,-6.44 Molar
same,Log10LC50,OVCAR-3,-5.03 Molar
same,Log10TGI,OVCAR-3,-5.78 Molar
same,TGI,OVCAR-3,1.64E-6 Molar
same,Growth Percent,OVCAR-3; 1.00E-5 Molar,8.25%
same,GI50,OVCAR-3; Homo sapiens,0.359 µM
same,CC50,OVCAR-3; [1],9.33 µM
same,Percent Growth,OVCAR-3; Log10 Concentration -4.0,-96%
same,Percent Growth,OVCAR-3; Log10 Concentration -5.0,-52%
same,Percent Growth,OVCAR-3; Log10 Concentration -6.0,14%
same,Percent Growth,OVCAR-3; Log10 Concentration -7.0,95%
same,Percent Growth,OVCAR-3; Log10 Concentration -8.0,102%
same,Log10GI50,U251,-6.28 Molar
same,Log10LC50,U251,-5.38 Molar
same,Log10TGI,U251,-5.77 Molar
same,TGI,U251,1.70E-6 Molar
same,Growth Percent,U251; 1.00E-5 Molar,5.14%
same,GI50,"U251; Homo sapiens, U-251",0.521 µM
same,LC50,"U251; Homo sapiens, U-251",4.21 µM
same,Percent Growth,U251; Log10 Concentration -4.0,-99%
same,Percent Growth,U251; Log10 Concentration -5.0,-98%
same,Percent Growth,U251; Log10 Concentration -6.0,29%
same,Percent Growth,U251; Log10 Concentration -7.0,103%
same,Percent Growth,U251; Log10 Concentration -8.0,102%
same,Log10GI50,UACC-62,-6.32 Molar
same,Log10LC50,UACC-62,-4.75 Molar
same,Log10TGI,UACC-62,-5.53 Molar
same,TGI,UACC-62,2.97E-6 Molar
same,Growth Percent,UACC-62; 1.00E-5 Molar,25.73%
same,GI50,UACC-62; Homo sapiens,0.478 µM
same,CC50,UACC-62; [1],17.9 µM
same,Percent Growth,UACC-62; Log10 Concentration -4.0,-95%
same,Percent Growth,UACC-62; Log10 Concentration -5.0,-35%
same,Percent Growth,UACC-62; Log10 Concentration -6.0,31%
same,Percent Growth,UACC-62; Log10 Concentration -7.0,90%
same,Percent Growth,UACC-62; Log10 Concentration -8.0,94%
same,Log10GI50,IGROV1,-6.24 Molar
same,Log10LC50,IGROV1,> -4.00 Molar
same,Log10TGI,IGROV1,-4.77 Molar
same,TGI,IGROV1,1.70E-5 Molar
same,Growth Percent,IGROV1; 1.00E-5 Molar,14.55%
same,GI50,"IGROV1; Homo sapiens, IGROV-1",0.582 µM
same,CC50,"IGROV1; Homo sapiens, IGROV-1, read-out: LC50 (the source's name)",> 100 µM
same,Percent Growth,IGROV1; Log10 Concentration -4.0,-27%
same,Percent Growth,IGROV1; Log10 Concentration -5.0,8%
same,Percent Growth,IGROV1; Log10 Concentration -6.0,40%
same,Percent Growth,IGROV1; Log10 Concentration -7.0,82%
same,Percent Growth,IGROV1; Log10 Concentration -8.0,99%
same,Log10GI50,PC-3,-6.07 Molar
same,Log10LC50,PC-3,-4.59 Molar
same,Log10TGI,PC-3,-5.43 Molar
same,TGI,PC-3,3.75E-6 Molar
same,Growth Percent,PC-3; 1.00E-5 Molar,22.06%
same,GI50,PC-3; Homo sapiens,0.842 µM
same,CC50,PC-3; [1],25.9 µM
same,Percent Growth,PC-3; Log10 Concentration -4.0,-73%
same,Percent Growth,PC-3; Log10 Concentration -5.0,-34%
same,Percent Growth,PC-3; Log10 Concentration -6.0,46%
same,Percent Growth,PC-3; Log10 Concentration -7.0,102%
same,Percent Growth,PC-3; Log10 Concentration -8.0,104%
same,Log10GI50,SK-OV-3,-5.65 Molar
same,Log10LC50,SK-OV-3,-4.44 Molar
same,Log10TGI,SK-OV-3,-4.89 Molar
same,TGI,SK-OV-3,1.28E-5 Molar
same,Growth Percent,SK-OV-3; 1.00E-5 Molar,6.12%
same,GI50,SK-OV-3; Homo sapiens,2.23 µM
same,CC50,SK-OV-3; [1],36.2 µM
same,Percent Growth,SK-OV-3; Log10 Concentration -4.0,-99%
same,Percent Growth,SK-OV-3; Log10 Concentration -5.0,12%
same,Percent Growth,SK-OV-3; Log10 Concentration -6.0,70%
same,Percent Growth,SK-OV-3; Log10 Concentration -7.0,99%
same,Percent Growth,SK-OV-3; Log10 Concentration -8.0,87%
same,Log10GI50,SK-MEL-2,-6.16 Molar
same,Log10LC50,SK-MEL-2,-4.54 Molar
same,Log10TGI,SK-MEL-2,-5.36 Molar
same,TGI,SK-MEL-2,4.39E-6 Molar
same,Growth Percent,SK-MEL-2; 1.00E-5 Molar,-2.52%
same,GI50,SK-MEL-2; Homo sapiens,0.694 µM
same,CC50,SK-MEL-2; [1],29.2 µM
same,Percent Growth,SK-MEL-2; Log10 Concentration -4.0,-81%
same,Percent Growth,SK-MEL-2; Log10 Concentration -5.0,-23%
same,Percent Growth,SK-MEL-2; Log10 Concentration -6.0,41%
same,Percent Growth,SK-MEL-2; Log10 Concentration -7.0,99%
same,Percent Growth,SK-MEL-2; Log10 Concentration -8.0,95%
same,Log10GI50,BT-549,-6.41 Molar
same,Log10LC50,BT-549,-4.72 Molar
same,Log10TGI,BT-549,-5.62 Molar
same,TGI,BT-549,2.42E-6 Molar
same,Growth Percent,BT-549; 1.00E-5 Molar,18.91%
same,GI50,BT-549; Homo sapiens,0.387 µM
same,CC50,BT-549; [1],19.2 µM
same,Percent Growth,BT-549; Log10 Concentration -4.0,-97%
same,Percent Growth,BT-549; Log10 Concentration -5.0,-32%
same,Percent Growth,BT-549; Log10 Concentration -6.0,20%
same,Percent Growth,BT-549; Log10 Concentration -7.0,93%
same,Percent Growth,BT-549; Log10 Concentration -8.0,91%
same,Log10GI50,NCI/ADR-RES,-6.56 Molar
same,Log10LC50,NCI/ADR-RES,> -4.00 Molar
same,Log10TGI,NCI/ADR-RES,-4.70 Molar
same,TGI,NCI/ADR-RES,2.00E-5 Molar
same,Growth Percent,NCI/ADR-RES; 1.00E-5 Molar,10.36%
same,GI50,NCI/ADR-RES; Homo sapiens,0.273 µM
same,CC50,NCI/ADR-RES; [1],> 100 µM
same,Percent Growth,NCI/ADR-RES; Log10 Concentration -4.0,-8%
same,Percent Growth,NCI/ADR-RES; Log10 Concentration -5.0,3%
same,Percent Growth,NCI/ADR-RES; Log10 Concentration -6.0,14%
same,Percent Growth,NCI/ADR-RES; Log10 Concentration -7.0,78%
same,Percent Growth,NCI/ADR-RES; Log10 Concentration -8.0,97%
same,Log10GI50,NCI-H522,-6.45 Molar
same,Log10LC50,NCI-H522,-4.89 Molar
same,Log10TGI,NCI-H522,-5.69 Molar
same,TGI,NCI-H522,2.06E-6 Molar
same,Growth Percent,NCI-H522; 1.00E-5 Molar,3.93%
same,GI50,NCI-H522; Homo sapiens,0.352 µM
same,LC50 (concentration causing 50% net cell kill),NCI-H522; Homo sapiens,12.9 µM
same,Percent Growth,NCI-H522; Log10 Concentration -4.0,-88%
same,Percent Growth,NCI-H522; Log10 Concentration -5.0,-45%
same,Percent Growth,NCI-H522; Log10 Concentration -6.0,21%
same,Percent Growth,NCI-H522; Log10 Concentration -7.0,85%
same,Percent Growth,NCI-H522; Log10 Concentration -8.0,87%
